Key:
[1] = target: Vascular endothelial growth factor receptor 2 (Homo sapiens, UniProt P35968); assay type: functional
[2] = target: T1, Corticotropin-releasing factor receptor 1 (Homo sapiens, UniProt P34998)
T1 sequence (P34998 whole entry): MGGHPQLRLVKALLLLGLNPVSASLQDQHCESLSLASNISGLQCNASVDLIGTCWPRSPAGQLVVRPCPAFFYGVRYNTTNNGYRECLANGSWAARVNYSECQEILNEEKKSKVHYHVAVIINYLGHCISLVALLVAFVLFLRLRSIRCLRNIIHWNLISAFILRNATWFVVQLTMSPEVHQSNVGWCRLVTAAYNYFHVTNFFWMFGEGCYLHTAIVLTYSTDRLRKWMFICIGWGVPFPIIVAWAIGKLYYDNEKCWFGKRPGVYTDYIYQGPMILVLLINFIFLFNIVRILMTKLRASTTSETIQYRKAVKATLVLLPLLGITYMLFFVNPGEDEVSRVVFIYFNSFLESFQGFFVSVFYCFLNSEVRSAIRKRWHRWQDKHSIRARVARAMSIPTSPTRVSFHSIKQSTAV

[3] = target: T2, Muscarinic acetylcholine receptor M2 (Homo sapiens, UniProt P08172)
T2 sequence (P08172 whole entry): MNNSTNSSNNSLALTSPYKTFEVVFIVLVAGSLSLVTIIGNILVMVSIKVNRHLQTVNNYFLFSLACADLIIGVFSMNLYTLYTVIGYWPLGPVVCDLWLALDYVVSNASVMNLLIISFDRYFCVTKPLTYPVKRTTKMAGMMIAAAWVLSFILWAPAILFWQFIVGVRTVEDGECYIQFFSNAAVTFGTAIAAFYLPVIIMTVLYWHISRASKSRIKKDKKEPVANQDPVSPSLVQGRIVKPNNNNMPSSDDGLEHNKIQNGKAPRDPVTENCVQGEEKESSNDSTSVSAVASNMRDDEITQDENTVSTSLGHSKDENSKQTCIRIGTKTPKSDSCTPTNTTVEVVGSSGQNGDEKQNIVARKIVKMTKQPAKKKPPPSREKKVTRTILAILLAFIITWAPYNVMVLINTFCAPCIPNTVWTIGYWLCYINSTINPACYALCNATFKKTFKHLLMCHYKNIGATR

[4] = target: T3, Estrogen receptor (Homo sapiens, UniProt P03372)
T3 sequence (P03372 whole entry): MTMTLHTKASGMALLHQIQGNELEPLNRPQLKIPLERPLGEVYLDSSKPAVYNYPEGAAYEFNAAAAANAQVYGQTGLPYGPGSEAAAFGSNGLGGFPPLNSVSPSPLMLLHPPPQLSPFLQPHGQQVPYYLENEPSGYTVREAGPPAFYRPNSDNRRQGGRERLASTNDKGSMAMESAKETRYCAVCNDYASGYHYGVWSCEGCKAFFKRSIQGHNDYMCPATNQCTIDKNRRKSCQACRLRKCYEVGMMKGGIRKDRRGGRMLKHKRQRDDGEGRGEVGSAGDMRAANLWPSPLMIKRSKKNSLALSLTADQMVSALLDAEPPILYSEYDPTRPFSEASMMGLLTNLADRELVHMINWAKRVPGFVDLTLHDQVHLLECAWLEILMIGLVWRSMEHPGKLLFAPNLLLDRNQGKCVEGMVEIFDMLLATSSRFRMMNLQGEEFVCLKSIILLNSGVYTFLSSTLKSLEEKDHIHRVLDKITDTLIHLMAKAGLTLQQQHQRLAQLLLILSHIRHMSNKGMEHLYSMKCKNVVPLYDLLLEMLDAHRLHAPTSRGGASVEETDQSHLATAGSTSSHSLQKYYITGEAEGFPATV

[5] = target: T4, Peroxisome proliferator-activated receptor gamma (Homo sapiens, UniProt P37231); assay type: functional
T4 sequence (P37231 whole entry): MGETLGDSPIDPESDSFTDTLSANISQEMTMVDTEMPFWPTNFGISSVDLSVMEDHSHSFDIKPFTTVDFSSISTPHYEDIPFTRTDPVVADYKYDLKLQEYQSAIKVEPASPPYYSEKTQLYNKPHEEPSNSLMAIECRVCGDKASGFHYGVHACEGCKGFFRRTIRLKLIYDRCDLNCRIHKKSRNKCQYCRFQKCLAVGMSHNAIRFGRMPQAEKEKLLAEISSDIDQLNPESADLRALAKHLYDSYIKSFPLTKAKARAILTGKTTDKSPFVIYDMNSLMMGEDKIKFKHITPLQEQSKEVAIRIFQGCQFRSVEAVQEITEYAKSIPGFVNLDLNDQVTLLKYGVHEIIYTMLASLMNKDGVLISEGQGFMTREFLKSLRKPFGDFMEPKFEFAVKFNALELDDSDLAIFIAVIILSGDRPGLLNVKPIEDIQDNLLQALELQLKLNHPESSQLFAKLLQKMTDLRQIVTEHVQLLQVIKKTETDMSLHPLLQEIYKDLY

[6] = target: Estrogen receptor beta (Homo sapiens, UniProt Q92731)
Sequence of Estrogen receptor beta (Q92731 whole entry): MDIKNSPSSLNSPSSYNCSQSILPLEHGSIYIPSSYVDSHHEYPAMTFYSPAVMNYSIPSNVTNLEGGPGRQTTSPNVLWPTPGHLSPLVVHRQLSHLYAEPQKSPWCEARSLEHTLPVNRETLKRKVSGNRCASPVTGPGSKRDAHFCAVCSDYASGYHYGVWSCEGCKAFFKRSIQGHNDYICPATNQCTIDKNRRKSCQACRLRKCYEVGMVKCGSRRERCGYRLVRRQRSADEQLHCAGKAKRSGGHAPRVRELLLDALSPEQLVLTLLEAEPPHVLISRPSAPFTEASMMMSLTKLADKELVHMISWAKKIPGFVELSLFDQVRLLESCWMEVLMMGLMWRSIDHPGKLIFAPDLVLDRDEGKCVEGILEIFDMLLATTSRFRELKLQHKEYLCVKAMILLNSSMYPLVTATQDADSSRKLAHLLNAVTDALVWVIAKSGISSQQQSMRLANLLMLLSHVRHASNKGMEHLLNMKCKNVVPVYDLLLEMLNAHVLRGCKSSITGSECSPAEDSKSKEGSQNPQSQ

[7] = target: T5, 5-hydroxytryptamine receptor 1A (Homo sapiens, UniProt P08908)
T5 sequence (P08908 whole entry): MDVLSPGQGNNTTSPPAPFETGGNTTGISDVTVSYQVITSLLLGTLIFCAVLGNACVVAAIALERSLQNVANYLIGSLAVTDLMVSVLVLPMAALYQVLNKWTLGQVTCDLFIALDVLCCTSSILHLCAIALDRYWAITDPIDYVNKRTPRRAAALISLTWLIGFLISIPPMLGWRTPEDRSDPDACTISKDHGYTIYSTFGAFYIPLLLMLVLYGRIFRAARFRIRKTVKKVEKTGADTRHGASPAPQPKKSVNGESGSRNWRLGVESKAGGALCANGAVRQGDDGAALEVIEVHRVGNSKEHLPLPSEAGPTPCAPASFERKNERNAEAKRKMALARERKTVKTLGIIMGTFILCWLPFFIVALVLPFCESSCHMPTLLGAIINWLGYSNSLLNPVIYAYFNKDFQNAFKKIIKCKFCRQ
Also: assay procedure not described here.

Sequence of Vascular endothelial growth factor receptor 2 (P35968 whole entry): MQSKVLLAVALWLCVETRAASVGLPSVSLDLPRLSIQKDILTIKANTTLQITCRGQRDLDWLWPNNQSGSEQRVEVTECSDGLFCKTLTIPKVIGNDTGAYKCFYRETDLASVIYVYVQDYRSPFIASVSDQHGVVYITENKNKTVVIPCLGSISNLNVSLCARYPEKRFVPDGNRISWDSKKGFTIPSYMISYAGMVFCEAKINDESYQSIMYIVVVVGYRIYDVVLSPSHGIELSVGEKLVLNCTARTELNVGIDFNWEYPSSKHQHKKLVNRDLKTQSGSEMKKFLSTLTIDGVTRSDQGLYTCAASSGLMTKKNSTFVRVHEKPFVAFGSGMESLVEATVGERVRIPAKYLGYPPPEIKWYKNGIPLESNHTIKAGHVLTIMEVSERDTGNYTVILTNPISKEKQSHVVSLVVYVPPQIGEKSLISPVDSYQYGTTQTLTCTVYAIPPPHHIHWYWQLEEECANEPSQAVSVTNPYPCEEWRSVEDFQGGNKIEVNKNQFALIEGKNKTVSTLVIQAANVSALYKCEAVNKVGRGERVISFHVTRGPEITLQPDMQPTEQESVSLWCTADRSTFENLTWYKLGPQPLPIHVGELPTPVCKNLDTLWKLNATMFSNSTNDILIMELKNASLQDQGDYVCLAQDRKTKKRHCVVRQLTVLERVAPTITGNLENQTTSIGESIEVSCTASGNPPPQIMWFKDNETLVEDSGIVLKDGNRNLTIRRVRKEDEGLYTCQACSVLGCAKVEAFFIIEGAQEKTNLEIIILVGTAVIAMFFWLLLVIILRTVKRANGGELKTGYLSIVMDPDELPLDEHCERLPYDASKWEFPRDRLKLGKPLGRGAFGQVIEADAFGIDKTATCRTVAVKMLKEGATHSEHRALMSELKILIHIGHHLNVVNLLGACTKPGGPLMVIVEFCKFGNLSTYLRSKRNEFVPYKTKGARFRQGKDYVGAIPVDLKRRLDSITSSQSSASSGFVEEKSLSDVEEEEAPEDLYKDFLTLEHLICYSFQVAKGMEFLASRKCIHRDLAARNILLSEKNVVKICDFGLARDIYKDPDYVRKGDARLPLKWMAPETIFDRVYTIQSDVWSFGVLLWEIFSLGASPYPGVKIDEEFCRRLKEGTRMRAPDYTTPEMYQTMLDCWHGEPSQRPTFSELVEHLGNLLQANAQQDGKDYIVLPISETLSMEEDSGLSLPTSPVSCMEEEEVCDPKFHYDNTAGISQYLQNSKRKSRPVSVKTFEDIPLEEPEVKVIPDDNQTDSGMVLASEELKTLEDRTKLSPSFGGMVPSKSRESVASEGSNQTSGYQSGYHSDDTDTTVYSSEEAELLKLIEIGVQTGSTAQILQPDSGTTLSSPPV

Row | Compound | AC50 [1] | AC50 [2] | AC50 [3] | AC50 [4] | AC50 [5] | AC50 [6] | AC50 [7]
1 | CCCN1C[C@H](CSC)C[C@@H]2c3cccc4[nH]cc(c34)C[C@H]21 [PERGOLIDE] | > 30 µM | > 30 µM | > 10 µM | > 30 µM | > 30 µM | > 30 µM | –
2 | Cn1nnc2c(C(N)=O)ncn2c1=O [TEMOZOLOMIDE] | > 30 µM | > 30 µM | > 10 µM | > 30 µM | > 30 µM | > 30 µM | > 10 µM
3 | NCC(CC(=O)O)c1ccc(Cl)cc1 (centres undefined) [BACLOFEN] | > 30 µM | > 30 µM | > 10 µM | – | > 30 µM | > 30 µM | > 10 µM
